77 sequences from patent US20060110803A1 (Crucell Holland B.V., priority 2003, published 2006) can be followed below.

In test [1] the test system is antibodies in rabbit serum obtained by immunizing a rabbit with the SARS-CoV strain Frankfurt 1. It counts as binding.
Test [2] has as its system antibodies in sera of individuals which have been and/or are infected by SARS-CoV (SARS-green, SARS-yellow, 1a, 1b, 2, 6, 37, 62, London). It counts as binding, human.

As for CDNPFFAVSKPMGTQ [SEQ ID NO:172], the “recognition by rabbit serum” value in test [1] was “recognized by the rabbit serum”.
In the case of CTTFDDVQAPNYTQH [SEQ ID NO:58], the “recognition by rabbit serum” value in test [1] is “recognized by the rabbit serum”.
Take DDVQAPNYTQHTSSM [SEQ ID NO:62]: the “recognition by rabbit serum” value in test [1] is given as “recognized by the rabbit serum”.
As to DFTDSVRDPKTSEIL [SEQ ID NO:585], the “recognition by rabbit serum” value in test [1] is recorded as “recognized by the rabbit serum”.
For the sequence DNPFFAVSKPMGTQT [SEQ ID NO:173], in test [1], the “recognition by rabbit serum” value was “recognized by the rabbit serum”.
On to DRCTTFDDVQAPNYT [SEQ ID NO:56], for which the “recognition by rabbit serum” value in test [1] was “recognized by the rabbit serum”.
Consider DSVRDPKTSEILDIS [SEQ ID NO:588], for which the “recognition by rabbit serum” value in test [1] is “recognized by the rabbit serum”.
Still for that read-out and setting: with DVQAPNYTQHTSSMR [SEQ ID NO:63] the entry was “recognized by the rabbit serum”; with FDDVQAPNYTQHTSS [SEQ ID NO:61], “recognized by the rabbit serum”.
Take FMLKYDENGTITDAV [SEQ ID NO:290]: in test [1], the “recognition by rabbit serum” value is recorded as “recognized by the rabbit serum”.
With FTDSVRDPKTSEILD [SEQ ID NO:586], the “recognition by rabbit serum” value in test [1] is “recognized by the rabbit serum”.
On the same count and under the same terms, with GIGYQPYRVVVLSFE [SEQ ID NO:516] the entry was “recognized by the rabbit serum”; with GYQPYRVVVLSFELL [SEQ ID NO:518], “recognized by the rabbit serum”; with IGYQPYRVVVLSFEL [SEQ ID NO:517], “recognized by the rabbit serum”.
For the sequence KYDENGTITDAVDCS [SEQ ID NO:293], the “recognition by rabbit serum” value in test [1] was “recognized by the rabbit serum”.
Same read-out and setting: to LDRCTTFDDVQAPNY [SEQ ID NO:55] belongs “recognized by the rabbit serum”; to LKYDENGTITDAVDC [SEQ ID NO:292], “recognized by the rabbit serum”; to MLKYDENGTITDAVD [SEQ ID NO:291], “recognized by the rabbit serum”.
The same measure, in the same setting: to NPFFAVSKPMGTQTH [SEQ ID NO:174] belongs “recognized by the rabbit serum”.
Take PPALNCYWPLNDYGF [SEQ ID NO:497]: the “recognition by sera of SARS-CoV infected individuals, looped/cyclic form” value (“recognition by sera … looped/cyclic form” for short) in test [2] is “recognized in looped/cyclic form”.
In the case of PTTFMLKYDENGTIT [SEQ ID NO:287], the “recognition by rabbit serum” value in test [1] is “recognized by the rabbit serum”.
QALNTLVKQLSSNFG [SEQ ID NO:967]: the “recognition by sera … looped/cyclic form” value in test [2] is recorded as “recognized in looped/cyclic form”.
Take QAPNYTQHTSSMRGV [SEQ ID NO:65]: the “recognition by rabbit serum” value in test [1] was “recognized by the rabbit serum”.
For the sequence QDVVNQNAQALNTLV [SEQ ID NO:959], the “recognition by sera … looped/cyclic form” value in test [2] is reported as “recognized in looped/cyclic form”.
On the same count and under the same terms, to QESLTTTSTALGKLQ [SEQ ID NO:945] belongs “recognized in looped/cyclic form”; to QHTSSMRGVYYPDEI [SEQ ID NO:71], “recognized in looped/cyclic form”; to QIQESLTTTSTALGK [SEQ ID NO:943], “recognized in looped/cyclic form”.
Same read-out and setting: to QKFNGLTVLPPLLTD [SEQ ID NO:863] belongs “recognized in looped/cyclic form”.
Still for that read-out and setting: to QNAQALNTLVKQLSS [SEQ ID NO:964] belongs “recognized in looped/cyclic form”; to QPELDSFKEELDKYF [SEQ ID NO:1140], “recognized in looped/cyclic form”.
Consider RCTTFDDVQAPNYTQ [SEQ ID NO:57], for which the “recognition by rabbit serum” value in test [1] is recorded as “recognized by the rabbit serum”.
Consider RGVYYPDEIFRSDTL [SEQ ID NO:77], for which the “recognition by sera … looped/cyclic form” value in test [2] is recorded as “recognized in looped/cyclic form”.
Still for that read-out and setting: to RLDKVEAEVQIDRLI [SEQ ID NO:993] belongs “recognized in looped/cyclic form”; to RLNEVAKNLNESLID [SEQ ID NO:1181], “recognized in looped/cyclic form”.
On to SDFTDSVRDPKTSEI [SEQ ID NO:584], for which the “recognition by rabbit serum” value in test [1] was “recognized by the rabbit serum”.
Regarding SGSDLDRCTTFDDVQ [SEQ ID NO:51], the “recognition by sera … looped/cyclic form” value in test [2] is listed as “recognized in looped/cyclic form”.
As for SGTATAGWTFGAGAA [SEQ ID NO:889], the “recognition by sera of SARS-CoV infected individuals, linear form” value (from here on “recognition by sera … linear form”) in test [2] was “recognized in linear form”.
Regarding SLTTTSTALGKLQDV [SEQ ID NO:947], in test [2], the “recognition by sera … looped/cyclic form” value is recorded as “recognized in looped/cyclic form”.
In the case of SMRGVYYPDEIFRSD [SEQ ID NO:75], the “recognition by sera … looped/cyclic form” value in test [2] is reported as “recognized in looped/cyclic form”.
For SNVPFSPDGKPCTPP [SEQ ID NO:484], the “recognition by sera … linear form” value in test [2] is listed as “recognized in linear form”.
As to SPDGKPCTPPALNCY [SEQ ID NO:489], the “recognition by sera … linear form” value in test [2] is listed as “recognized in linear form”.
Take SPDVDLGDISGINAS [SEQ ID NO:1157]: the “recognition by sera … looped/cyclic form” value in test [2] is given as “recognized in looped/cyclic form”.
Turning to SRLDKVEAEVQIDRL [SEQ ID NO:992], in test [2], the “recognition by sera … looped/cyclic form” value was “recognized in looped/cyclic form”.
Still for that read-out and setting: to SSMRGVYYPDEIFRS [SEQ ID NO:74] belongs “recognized in looped/cyclic form”.
For the sequence STALGKLQDVVNQNA [SEQ ID NO:952], the “recognition by rabbit serum” value in test [1] is “recognized by the rabbit serum”.
SVDCNMYICGDSTEC [SEQ ID NO:745]: the “recognition by sera … linear form” value in test [2] is “recognized in linear form”.
On the same count and under the same terms, with TAGWTFGAGAALQIP [SEQ ID NO:893] the entry was “recognized in linear form”.
For TALGKLQDVVNQNAQ [SEQ ID NO:953], the “recognition by rabbit serum” value in test [1] is “recognized by the rabbit serum”.
In the case of TATAGWTFGAGAALQ [SEQ ID NO:891], in test [2], the “recognition by sera … linear form” value is listed as “recognized in linear form”.
In the case of TDSVRDPKTSEILDI [SEQ ID NO:587], the “recognition by rabbit serum” value in test [1] was “recognized by the rabbit serum”.
Regarding TEVMPVSMAKTSVDC [SEQ ID NO:734], the “recognition by sera … looped/cyclic form” value in test [2] is recorded as “recognized in looped/cyclic form”.
Turning to TFDDVQAPNYTQHTS [SEQ ID NO:60], in test [1], the “recognition by rabbit serum” value is “recognized by the rabbit serum”.
As to TLTSGSDLDRCTTFD [SEQ ID NO:48], the “recognition by sera … looped/cyclic form” value in test [2] is listed as “recognized in looped/cyclic form”.
For the sequence TPPALNCYWPLNDYG [SEQ ID NO:496], in test [2], the “recognition by sera … looped/cyclic form” value is “recognized in looped/cyclic form”.
Take TQHTSSMRGVYYPDE [SEQ ID NO:70]: the “recognition by sera … looped/cyclic form” value in test [2] is recorded as “recognized in looped/cyclic form”.
Same read-out and setting: with TSGSDLDRCTTFDDV [SEQ ID NO:50] the entry was “recognized in looped/cyclic form”; with TSPDVDLGDISGINA [SEQ ID NO:1156], “recognized in looped/cyclic form”.
For TSSMRGVYYPDEIFR [SEQ ID NO:73], the “recognition by sera … looped/cyclic form” value in test [2] is listed as “recognized in looped/cyclic form”.
With TSVDCNMYICGDSTE [SEQ ID NO:744], the “recognition by sera … linear form” value in test [2] was “recognized in linear form”.
Regarding TTEVMPVSMAKTSVD [SEQ ID NO:733], the “recognition by sera … looped/cyclic form” value in test [2] is given as “recognized in looped/cyclic form”.
As to TTTSTALGKLQDVVN [SEQ ID NO:949], the “recognition by sera … looped/cyclic form” value in test [2] is on record as “recognized in looped/cyclic form”.
Still for that read-out and setting: to TVYDPLQPELDSFKE [SEQ ID NO:1134] belongs “recognized in looped/cyclic form”; to VAKNLNESLIDLQEL [SEQ ID NO:1185], “recognized in looped/cyclic form”.
As to VDCNMYICGDSTECA [SEQ ID NO:746], the “recognition by sera … linear form” value in test [2] was “recognized in linear form”.
VNQNAQALNTLVKQL [SEQ ID NO:962]: the “recognition by sera … looped/cyclic form” value in test [2] is on record as “recognized in looped/cyclic form”.
With VPFSPDGKPCTPPAL [SEQ ID NO:486], in test [2], the “recognition by sera … linear form” value is listed as “recognized in linear form”.
The same measure, in the same setting: with VSGTATAGWTFGAGA [SEQ ID NO:888] the entry was “recognized in linear form”.
Consider VVNQNAQALNTLVKQ [SEQ ID NO:961], for which, in test [2], the “recognition by sera … looped/cyclic form” value is “recognized in looped/cyclic form”.
Still for that read-out and setting: to VWLGFIAGLIAIVMV [SEQ ID NO:1212] belongs “recognized in looped/cyclic form”.
As for VYDPLQPELDSFKEE [SEQ ID NO:1135], in test [2], the “recognition by sera … looped/cyclic form” value is listed as “recognized in looped/cyclic form”.
As to VYYPDEIFRSDTLYL [SEQ ID NO:79], in test [2], the “recognition by sera … looped/cyclic form” value is given as “recognized in looped/cyclic form”.
Turning to WLGFIAGLIAIVMVT [SEQ ID NO:1213], the “recognition by sera … looped/cyclic form” value in test [2] is reported as “recognized in looped/cyclic form”.
Same read-out and setting: with WYVWLGFIAGLIAIV [SEQ ID NO:1210] the entry was “recognized in looped/cyclic form”; with YDPLQPELDSFKEEL [SEQ ID NO:1136], “recognized in looped/cyclic form”.
The same measure, in the same setting: to YFKNHTSPDVDLGDI [SEQ ID NO:1151] belongs “recognized in looped/cyclic form”.
Regarding YICGDSTECANLLLQ [SEQ ID NO:751], the “recognition by sera … linear form” value in test [2] was “recognized in linear form”.
Turning to YVWLGFIAGLIAIVM [SEQ ID NO:1211], the “recognition by sera … looped/cyclic form” value in test [2] was “recognized in looped/cyclic form”.
